Measured values reported in patent US11685747B2, “Compounds that inhibit MCL-1 protein” (AMGEN INC., priority 2014, dated 2023).

How the values were obtained:
recombinant human Mcl-1 = target: T1, recombinant human Mcl-1 (Homo sapiens, UniProt Q07820); experiment: Cell free Mcl-1:Bim affinity assay (Mcl-1 HTRF, TR-FRET); format: binding; details: inhibition of Mcl-1/Bim interaction
T1 construct: C-terminally 6×His tagged Mcl-1 containing residues 171-327; made in house
Experimental: Cell Free Mcl-1:Bim Affinity Assay (Mcl-1 HTRF)
The inhibition of the Mcl-1/Bim interaction was measured using a time-resolved fluorescence resonance energy transfer (TR-FRET) assay. […] A biotinylated peptide derived from human Bim (residues 51-76) was purchased from CPC Scientific (San Jose, Calif.). The TR-FRET assay was conducted in a 384-well white OptiPlate™ (PerkinElmer, Waltham, Mass.) in a total volume of 40 μL. […] The reaction plates were further incubated overnight and then were read on an Envision® multimode reader (PerkinElmer). […] The IC50 values of test compounds were determined from duplicate data by analyzing competition curves using a four-parameter sigmoidal model in GraphPad Prism (GraphPad Software, San Diego, Calif.) or in Genedata Screener® (Genedata, Basel, Switzerland).

[1] = target: T2, Mcl-1/Bak protein-protein interactions (Homo sapiens, UniProt Q07820); experiment: Cell-based split luciferase complementation assay; details: HEK 293 M cells, serum-free, 4 h
T2 construct: expressed in transfected cells; host or cells: HEK 293 M cells, transient transfection
Experimental: Cell-Based Assay (Split Luciferase)
A split luciferase complementation assay was developed to determine the inhibition of Mcl-1/Bak protein-protein interactions in cells. […] Transient transfection was performed using Lipofectamine® LTX/Plus™ reagent (Life Technologies, Grand Island, N.Y.). 24 h after transfection, cells were collected using non-enzyme based cell dissociation buffer StemPro® Accutase® (Life Technologies), and resuspended in serum-free Opti-MEM® (Life Technologies). Cells were then seeded into assay plates with serially diluted test compounds in 0.3% DMSO at density of a 5000 cells/well. Cells were then incubated for 4 h at 37° C. in a cell culture incubator supplement with 5% CO2. Test plates were equilibrated to room temperate for 30 min before addition of 30 μL Steady-Glo® Luciferase assay reagent (Promega, Madison, Wis.) into each test well. Luminescence was determined using an EnVision® Multilabel plate reader 25 min after the addition of detection reagent. IC50 values were then calculated with Xlfit using a logistical 4-parameter fit model in GraphPad Prism (GraphPad Software, San Diego, Calif.) or in Genedata Screener® (Genedata, Basel, Switzerland).

OPM-2 = experiment: Cell viability assay (OPM-2 10 FBS, CellTiter-Glo); format: cell-based, human; details: OPM-2 cells
Experimental: Cell Viability Assay (OPM-2 10 FBS)
Cells were seeded into 384-well plates at 3000 cells/well density in complete growth medium containing 10% FBS, and incubated for 16 h with serially diluted test compounds in a 37° C. incubator with 5% CO2. Cell viability was tested using CellTiter-Glo® assay (Promega, Madison, Wis.) according to the manufacturer recommendations. Luminescence was determined using an EnVision® Multilabel plate reader 25 min after the addition of detection reagent. IC50 values were then calculated with Xlfit using a logistical 4-parameter fit model in GraphPad Prism (GraphPad Software, San Diego, Calif.) or in Genedata Screener® (Genedata, Basel, Switzerland).

T1 sequence (Q07820 171-327): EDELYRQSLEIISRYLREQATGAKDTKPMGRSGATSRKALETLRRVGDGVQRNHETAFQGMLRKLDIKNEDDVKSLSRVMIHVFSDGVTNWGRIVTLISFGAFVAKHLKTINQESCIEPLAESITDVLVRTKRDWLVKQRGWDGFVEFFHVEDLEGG
T2 sequence (Q07820 whole entry): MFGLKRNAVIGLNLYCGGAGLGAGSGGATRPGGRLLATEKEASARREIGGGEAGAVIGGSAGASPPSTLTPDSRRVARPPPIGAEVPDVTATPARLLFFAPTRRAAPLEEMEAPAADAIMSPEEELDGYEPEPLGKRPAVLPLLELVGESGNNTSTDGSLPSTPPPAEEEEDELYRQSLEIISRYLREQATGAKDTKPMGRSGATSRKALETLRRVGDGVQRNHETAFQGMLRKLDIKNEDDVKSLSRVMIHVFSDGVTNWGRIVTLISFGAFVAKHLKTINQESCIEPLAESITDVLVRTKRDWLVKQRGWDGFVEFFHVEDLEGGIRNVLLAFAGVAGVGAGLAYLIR

| SMILES | IC50 (recombinant human Mcl-1) | IC50 [1] | IC50 (OPM-2; 16 h) | IC50 (OPM-2; Homo sapiens, OPM-2, 16 h) | IC50 (OPM-2; Homo sapiens, 16 h) |
| --- | --- | --- | --- | --- | --- |
| CO[C@H]1/C=C/C[C@H](C)CS(=O)(=O)NC(=O)c2ccc3c(c2)N(C[C@@H]2CC[C@H]21)C[C@@]1(CCCc2cc(Cl)ccc21)CO3 (single isomer, unassigned) [Example 31] | 0.0058 µM | 0.543 µM | 3.56 µM | – | – |
| COCCO[C@H]1/C=C/CC[C@@H](C)S(=O)(=O)NC(=O)c2ccc3c(c2)N(C[C@@H]2CC[C@H]21)C[C@@]1(CCCc2cc(Cl)ccc21)CO3 [Example 76, (1S,3′R,6′R,7′S,8′E,12′R)-6-Chloro-7′-(2-Methoxyethoxy)-12′-Methyl-3,4-Dihydro-2H,15′H-Spiro[Naphthalene-1,22′-[20]Oxa[13]Thia[1,14]Diazatetracyclo[14.7.2.0^3,6.0^19,24]Pentacos A[8,16,18,24]Tetraen]-15′-One 13′,13′-Dioxide] | 0.00112 µM | 0.0774 µM | – | 0.668 µM | – |
| CC1(C)CC/C=C\[C@H](O)[C@@H]2CC[C@H]2CN2C[C@@]3(CCCc4cc(Cl)ccc43)COc3ccc(cc32)C(=O)NS1(=O)=O (single isomer, unassigned) [Example 41] | 0.00442 µM | 0.129 µM | – | 4.75 µM | – |
| C[C@H]1C/C=C/[C@H](O)[C@@H]2CC[C@H]2CN2C[C@@]3(CCCc4cc(Cl)ccc43)COc3ccc(cc32)C(=O)NS(=O)(=O)[C@@H]1C1CCC1 (single isomer, unassigned) [Example 55] | 0.0152 µM | 0.863 µM | 8.69 µM | – | – |
| C[C@H]1C/C=C/[C@H](O)[C@@H]2CC[C@H]2CN2C[C@@]3(CCCc4cc(Cl)ccc43)COc3ccc(cc32)C(=O)NS(=O)(=O)[C@@H]1CC1CC1 (single isomer, unassigned) [Example 58] | 0.000918 µM | 0.0482 µM | 0.496 µM | – | – |
| CC[C@@H]1CCCC[C@H](O)[C@@H]2CC[C@H]2CN2C[C@@]3(CCCc4ccccc43)COc3ccc(cc32)C(=O)NS1(=O)=O [Example 22, (1S,3′R,6′R,7′S,12′R)-12′-Ethyl-7′-Hydroxy-3,4-Dihydro-2H,15′H-Spiro[Naphthalene-1,22′-[20]Oxa[13]Thia[1,14]Diazatetracyclo[14.7.2.0^3,6.0^19,24]Pentacos A[16,18,24]Trien]-15′-One 13′,13′-Dioxide] | 0.000704 µM | 0.117 µM | – | 1.25 µM | – |
| CC(C)C[C@@H]1[C@@H](C)C/C=C/[C@H](O)[C@@H]2CC[C@H]2CN2C[C@@]3(CCCc4cc(Cl)ccc43)COc3ccc(cc32)C(=O)NS1(=O)=O (single isomer, unassigned) [Example 66] | 0.00212 µM | 0.224 µM | 2.33 µM | – | – |
| CO[C@H]1/C=C/CCCS(=O)(=O)NC(=O)c2ccc3c(c2)N(C[C@@H]2CC[C@H]21)C[C@@]1(CCCc2cc(Cl)ccc21)CO3 [Example 9, (1S,3′R,6′R,7′S,8′E)-6-Chloro-7′-Methoxy-3,4-Dihydro-2H,15′H-Spiro[Naphthalene-1,22′-[20]Oxa[13]Thia[1,14]Diazatetracyclo[14.7.2.0^3,6.0^19,24]Pentacos A[8,16,18,24]Tetraen]-15′-One 13′,13′-Dioxide] | 0.00124 µM | 0.127 µM | – | 1.2 µM | – |
| C[C@H]1C/C=C/[C@H](O)[C@@H]2CC[C@H]2CN2C[C@@]3(CCCc4cc(Cl)ccc43)COc3ccc(cc32)C(=O)NS(=O)(=O)[C@@H]1CC1CC1 (single isomer, unassigned) [Example 61] | 0.00267 µM | 0.0687 µM | 1.32 µM | – | – |
| CC1(C)CC/C=C/[C@H](O)[C@@H]2CC[C@H]2CN2C[C@@]3(CCCc4cc(Cl)ccc43)COc3ccc(cc32)C(=O)NS1(=O)=O (single isomer, unassigned) [Example 40] | 0.00768 µM | 0.297 µM | – | 7.29 µM | – |
| O=C1NS(=O)(=O)CCC/C=C/[C@H](O)[C@@H]2CC[C@H]2CN2C[C@@]3(CCCc4cc(Cl)ccc43)COc3ccc1cc32 [Example 8, (1S,3′R,6′R,7′S,8′E)-6-Chloro-7′-Hydroxy-3,4-Dihydro-2H,15′H-Spiro[Naphthalene-1,22′-[20]Oxa[13]Thia[1,14]Diazatetracyclo[14.7.2.0^3,6.0^19,24]Pentacos A[8,16,18,24]Tetraen]-15′-One 13′,13′-Dioxide] | 0.000977 µM | 0.211 µM | – | – | 1.68 µM |
| CC(C)[C@@H]1[C@H](C)C/C=C/[C@H](O)[C@@H]2CC[C@H]2CN2C[C@@]3(CCCc4cc(Cl)ccc43)COc3ccc(cc32)C(=O)NS1(=O)=O (single isomer, unassigned) [Example 50] | 0.00101 µM | 0.233 µM | 1.32 µM | – | – |
| CO[C@H]1/C=C/C[C@@H](C)[C@@H](C(C)C)S(=O)(=O)NC(=O)c2ccc3c(c2)N(C[C@@H]2CC[C@H]21)C[C@@]1(CCCc2cc(Cl)ccc21)CO3 [Example 53, (1S,3′R,6′R,7′S,8′E,11′R,12′R)-6-Chloro-7′-Methoxy-11′-Methyl-12′-(1-Methylethyl)-3,4-Dihydro-2H,15′H-Spiro[Naphthalene-1,22′-[20]Oxa[13]Thia[1,14]Diazatetracyclo[14.7.2.0^3,6.0^19,24]Pentacosa[8,16,18,24]Tetraen]-15′-One 13′,13′-Dioxide] | 0.00139 µM | 0.0514 µM | – | 0.329 µM | – |
| C[C@H]1C/C=C/[C@H](O)[C@@H]2CC[C@H]2CN2C[C@@]3(CCCc4cc(Cl)ccc43)COc3ccc(cc32)C(=O)NS(=O)(=O)[C@@H]1C1CC1 (single isomer, unassigned) [Example 45] | 0.00551 µM | 0.455 µM | 20 µM | – | – |

These reach a lower IC50 (recombinant human Mcl-1). Values come first.

| IC50 (recombinant human Mcl-1) | IC50 [1] | SMILES | IC50 (OPM-2; 16 h) | IC50 (OPM-2; Homo sapiens, OPM-2, 16 h) | IC50 (OPM-2; Homo sapiens, 16 h) |
| --- | --- | --- | --- | --- | --- |
| 0.000638 µM | 0.0347 µM | CCC[C@@H]1[C@@H](C)C/C=C/[C@H](O)[C@@H]2CC[C@H]2CN2C[C@@]3(CCCc4cc(Cl)ccc43)COc3ccc(cc32)C(=O)NS1(=O)=O [Example 70, (1S,3′R,6′R,7′S,8′E,11′S,12′R)-6-Chloro-7′-Hydroxy-11′-Methyl-12′-Propyl-3,4-Dihydro-2H,15′H-Spiro[Naphthalene-1,22′-[20]Oxa[13]Thia[1,14] Diazatetracyclo [14.7.2.0^3,6.0^19,24]Pentacosa [8,16,18,24]Tetraen]-15′-One 13′,13′-Dioxide] | – | 0.238 µM | – |
| 0.000501 µM | 0.0164 µM | CCC[C@@H]1[C@@H](C)C/C=C/[C@H](O)[C@@H]2CC[C@H]2CN2C[C@@]3(CCCc4cc(Cl)ccc43)COc3ccc(cc32)C(=O)NS1(=O)=O (single isomer, unassigned) [Example 68] | 0.179 µM | – | – |
| 0.000423 µM | 0.0307 µM | C[C@@H]1C/C=C/[C@H](O)[C@@H]2CC[C@H]2CN2C[C@@]3(CCCc4cc(Cl)ccc43)COc3ccc(cc32)C(=O)NS(=O)(=O)[C@H]1CC1CCC1 (single isomer, unassigned) [Example 63] | 0.183 µM | – | – |
| 0.000297 µM | 0.0215 µM | C[C@H]1C/C=C/[C@H](O)[C@@H]2CC[C@H]2CN2C[C@@]3(CCCc4cc(Cl)ccc43)COc3ccc(cc32)C(=O)NS(=O)(=O)[C@@H]1C1CC1 (single isomer, unassigned) [Example 44] | 0.208 µM | – | – |
| 0.000249 µM | 0.06 µM | C[C@H]1C/C=C/[C@H](O)[C@@H]2CC[C@H]2CN2C[C@@]3(CCCc4cc(Cl)ccc43)COc3ccc(cc32)C(=O)NS(=O)(=O)[C@@H]1C1CC1 (single isomer, unassigned) [Example 47] | 0.284 µM | – | – |
| 0.000153 µM | 0.0201 µM | CC[C@@H]1[C@@H](C)C/C=C/[C@H](O)[C@@H]2CC[C@H]2CN2C[C@@]3(CCCc4cc(Cl)ccc43)COc3ccc(cc32)C(=O)NS1(=O)=O (single isomer, unassigned) [Example 24] | – | 0.125 µM | – |
| 0.000153 µM | 0.0291 µM | COCCO[C@H]1/C=C/C[C@@H](C)[C@@H](C(C)C)S(=O)(=O)NC(=O)c2ccc3c(c2)N(C[C@@H]2CC[C@H]21)C[C@@]1(CCCc2cc(Cl)ccc21)CO3 [Example 54, (1S,3′R,6′R,7′S,8′E,11′R,12′R)-6-Chloro-7′-(2-Methoxyethoxy)-11′-Methyl-12′-(1-Methylethyl)-3,4-Dihydro-2H,15′H-Spiro[Naphthalene-1,22′-[20]Oxa[13]Thia[1,14]Diazatetracyclo[14.7.2.0^3,6.0^19,24]Pentacosa[8,16,18,24]Tetraen]-15′-One 13′,13′-Dioxide] | – | 0.131 µM | – |
